Data published in patent publication US8349870B2 (priority 2008, dated 2013).
Like-named read-outs stand apart in the source and are kept apart here.

Legend:
Format in all cases: in vivo
Plasmopara viticola = assay: Test A: grape downy mildew, spray after inoculation, visual disease rating (% disease control); conditions: 100 = 100% disease control, 0 = no control
Excerpt: General protocol for preparing test suspensions for Test A-C: The test compounds were first dissolved in acetone in an amount equal to 3% of the final volume and then suspended at the desired concentration (in ppm) in acetone and purified water (50/50 mix by volume) containing 250 ppm of the surfactant Trem® 014 (polyhydric alcohol esters). The resulting test suspensions were then used in Tests A-C. Spraying a 200 ppm test suspension to the point of run-off on the test plants was equivalent to a rate of 500 g/ha.
Grape seedlings were inoculated with a spore suspension of Plasmopara viticola (the causal agent of grape downy mildew) and incubated in a saturated atmosphere at 20° C. for 24 h. After a short drying period, the test suspension was sprayed to the point of run-off on the grape seedlings, which were then moved to a growth chamber at 20° C. for 5 days, after which time the grape seedling were placed back into a saturated atmosphere at 20° C. for 24 h. Upon removal, visual disease ratings were made.
Results for Tests A-C are given in Table A. In the table, a rating of 100 indicates 100% disease control and a rating of 0 indicates no disease control (relative to the controls). A dash (-) indicates no test results, “*” indicates compound was tested at 40 ppm and “**” indicates compound was tested at 10 ppm.

Phytophthora infestans [1] = conditions: tomato late blight, sprayed 17 h after inoculation
Phytophthora infestans [2] = conditions: tomato late blight, sprayed the day before inoculation
[3] = Cmpd No. unmarked, rate not stated in table (b1197 mentions a 200 ppm test suspension)

Compound | Test A rating (% disease control) (Plasmopara viticola; "*" compound tested at 40 ppm) [%] | Test C rating (% disease control) (Phytophthora infestans [1]; "*" compound tested at 40 ppm) [%] | Test B rating (% disease control) (Phytophthora infestans [2]; "*" compound tested at 40 ppm) [%] | further results
Cc1ccc(C)c(C(=O)C(=O)N2CCC(c3nc(C4=NOC(c5c(F)cccc5F)C4)cs3)CC2)c1 (centres unmarked) [compound 52] | 100 | 96 | 100 | 
N#CCC(=O)N1CCC(c2nc(C3=NOC(c4c(F)cccc4F)C3)cs2)CC1 (centres unmarked) [compound 63] | 94 | 92 | 100 | 
CC(C)CC(O)C(=O)N1CCC(c2nc(C3=NOC(c4c(F)cccc4F)C3)cs2)CC1 (mixture of isomers) [compound 56] | 98 | 50 | 84 | 
O=C(NC1CCCC1)N1CCC(c2nc(C3=NOC(c4ccccc4)C3)cs2)CC1 (centres unmarked) [compound 19] | 67 | 63 | 100 | 
O=C(C(=O)N1CCC(c2nc(C3=NOC(c4ccccc4F)C3)cs2)CC1)c1cccs1 (centres unmarked) [compound 46] | 0 | 0 | 0 | 
Cc1ccc(C)c(N=C(N2CCOCC2)N2CCC(c3nc(C4=NOC(c5ccccc5)C4)cs3)CC2)c1 (centres unmarked) [compound 30] | 58 | 17 | 64 | 
O=C(C(=O)N1CCC(c2nc(C3=NOC(c4ccccc4F)C3)cs2)CC1)c1ccccc1 (centres unmarked) [compound 45] | 0 | 0 | 0 | 
Cc1ccc(C)c(N=CN2CCC(c3nc(C4=NOC(c5ccccc5)C4)cs3)CC2)c1.Cl (centres unmarked) [compound 21] |  |  |  | Test A rating (% disease control) (Plasmopara viticola; [3]): 0%; Test C rating (% disease control) (Phytophthora infestans [1]; [3]): 0%; Test B rating (% disease control) (Phytophthora infestans [2]; [3]): 95%
CN(C)C(=O)N1CCC(c2nc(C3=NOC(c4ccccc4)C3)cs2)CC1 (centres unmarked) [compound 11] |  |  |  | Test A rating (% disease control) (Plasmopara viticola; [3]): 0%; Test C rating (% disease control) (Phytophthora infestans [1]; [3]): 0%; Test B rating (% disease control) (Phytophthora infestans [2]; [3]): 0%
CC(C)C(O)C(=O)N1CCC(c2nc(C3=NOC(c4c(F)cccc4F)C3)cs2)CC1 (mixture of isomers) [compound 54] |  | 99 | 100 | 
CCONC(=Nc1cc(C)ccc1C)N1CCC(c2nc(C3=NOC(c4c(F)cccc4F)C3)cs2)CC1 (centres unmarked) [compound 39] | 99 | 97 | 100 | 
5-chloro-1-[4-[4-[4,5-dihydro-5-(2-fluorophenyl)-3-isoxazolyl]-2-thiazolyl]-1-piperidinyl-1-pentanone [Example 7] |  |  |  | Test A rating (% disease control) (Plasmopara viticola; [3]): 98%; Test C rating (% disease control) (Phytophthora infestans [1]; [3]): 71%; Test B rating (% disease control) (Phytophthora infestans [2]; [3]): 100%
O=C(NCC1CCCCC1)N1CCC(c2nc(C3=NOC(c4ccccc4)C3)cs2)CC1 (centres unmarked) [compound 20] | 95 | 93 | 100 | 
Cc1ccc(C)c(N=C(N)N2CCC(c3nc(C4=NOC(c5ccccc5)C4)cs3)CC2)c1 (centres unmarked) [compound 23] |  |  |  | Test A rating (% disease control) (Plasmopara viticola; "**" compound tested at 10 ppm): 79%; Test C rating (% disease control) (Phytophthora infestans [1]; "**" compound tested at 10 ppm): 33%; Test B rating (% disease control) (Phytophthora infestans [2]; "**" compound tested at 10 ppm): 100%
Cc1cc(C(F)(F)F)nn1C(=O)C(=O)N1CCC(c2nc(C3=NOC(c4ccccc4F)C3)cs2)CC1 (centres unmarked) [compound 41] | 17 | 0 | 26 | 
CCNC(=O)N1CCC(c2nc(C3=NOC(c4ccccc4)C3)cs2)CC1 (centres unmarked) [compound 13] |  |  |  | Test A rating (% disease control) (Plasmopara viticola; [3]): 57%; Test C rating (% disease control) (Phytophthora infestans [1]; [3]): 0%; Test B rating (% disease control) (Phytophthora infestans [2]; [3]): 99%
